These results are taken from patent US7985759B2, “Dipeptidyl peptidase IV inhibitors and processes for their preparation and pharmaceutical compositions containing them” (Matrix Laboratories Ltd., priority 2006, dated 2011).

For this test, the target named is T1, Human recombinant DPP-IV (Homo sapiens, UniProt P27487).
T1 construct: host or cells: Sf9 insect cells
The test is described as follows: Assay of Dipeptidyl Peptidase IV activity (hydrolysis of Ala-Pro-AFC, fluorometric). It is filed as biochemical. Particulars: human recombinant DPP-IV (expressed in insect Sf9 cells), 20 μM Ala-Pro-AFC, 15 min preincubation, 30 min at 37° C., pH 8.0. As for the experimental part: Assay of Dipeptidyl Peptidase IV Activity
The inhibition of proteolytic activity of DPP-IV was assayed by following the hydrolysis of Ala-Pro-7-amino-4-trifluoromethylcoumarin (Ala-Pro-AFC) and fluorometric quantitation of the liberated AFC. Human recombinant DPP-IV (expressed in insect Sf9 cells) was used for the assay. Test compounds were dissolved in dimethyl sulfoxide (DMSO). Generally, the enzyme (about 20 ng/ml in 100 mM Tris-HCl buffer, pH 8.0) was preincubated in the absence (1% DMSO) and presence of various concentrations of the test compounds for 15 min at 37° C. The reaction was initiated by the addition of 20 μM Ala-Pro-AFC and further incubated for 30 min at 37° C. The AFC liberated was measured in a spectrofluorometer with excitation and emission wavelengths set at 400 nm and 510 nm, respectively. Results are expressed as percent inhibition of enzyme activity. A reference standard (a known inhibitor of DPP-IV) was always included in the assay.

T1 sequence (P27487 whole entry): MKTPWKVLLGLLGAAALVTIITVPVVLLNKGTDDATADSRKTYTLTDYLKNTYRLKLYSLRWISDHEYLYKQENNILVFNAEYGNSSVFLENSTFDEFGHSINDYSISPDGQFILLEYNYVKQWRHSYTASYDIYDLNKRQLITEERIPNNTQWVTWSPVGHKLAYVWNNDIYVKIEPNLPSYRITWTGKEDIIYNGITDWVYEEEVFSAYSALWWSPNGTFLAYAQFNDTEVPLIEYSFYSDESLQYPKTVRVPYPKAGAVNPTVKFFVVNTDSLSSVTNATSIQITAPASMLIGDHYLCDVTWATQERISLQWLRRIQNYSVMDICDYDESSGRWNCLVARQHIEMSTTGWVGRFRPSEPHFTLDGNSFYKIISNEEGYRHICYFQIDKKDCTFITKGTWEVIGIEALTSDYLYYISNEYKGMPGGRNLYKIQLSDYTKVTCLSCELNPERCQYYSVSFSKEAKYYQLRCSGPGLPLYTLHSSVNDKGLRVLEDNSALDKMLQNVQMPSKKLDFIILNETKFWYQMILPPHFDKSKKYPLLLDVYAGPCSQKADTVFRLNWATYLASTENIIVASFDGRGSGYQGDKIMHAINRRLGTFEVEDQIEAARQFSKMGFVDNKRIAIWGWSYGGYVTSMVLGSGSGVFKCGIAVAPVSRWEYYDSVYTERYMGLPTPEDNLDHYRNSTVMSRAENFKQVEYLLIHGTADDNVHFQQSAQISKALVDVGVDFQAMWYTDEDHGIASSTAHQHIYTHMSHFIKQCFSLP

One may read the IC50 as the point on the concentration scale where inhibition reaches its midpoint. For the compound `N#C[C@@H]1CCCN1C(=O)CNC12CC3CC1CC(O)(C3)C2` (stereo partly drawn) [Example 21, (2S)-1-{[(1-hydroxytricyclo[3.3.1.0^3,7]non-3-yl)amino]acetyl}pyrrolidine-2-carbonitrile], the IC50 amounted to 64.5 nM. With `N#C[C@@H]1CCCN1C(=O)CNC12CC3CC1CC(N)(C3)C2` (stereo partly drawn) [Example 24, (2S)-1-{[(1-aminotricyclo[3.3.1.0^3,7]non-3-yl)amino]acetyl}pyrrolidine-2-carbonitrile] the figure was 100 nM. With `N#C[C@@H]1CCCN1C(=O)CNC12CC3CC1CC(CN1C(=O)CSC1=O)(C3)C2` (stereo partly drawn) [Example 9, (2S)-1-{N-[2-[(2,4-dioxo-1,3-thiazolidin-3-yl)methyl]hexahydro-2,5-methanopentalen-3a(1H)-yl]glycyl}pyrrolidine-2-carbonitrile] the figure was 31.2 nM. With `N#C[C@@H]1CSCN1C(=O)CNC12CC3CC1CC(c1ccc(N4CCCS4(=O)=O)cc1)(C3)C2` (stereo partly drawn) [Example 14, (4R)-3-{N-[2-[4-(1,1-dioxidoisothiazolidin-2-yl)phenyl]hexahydro-2,5-methanopentalen-3a(1H)-yl]glycyl}-1,3-thiazolidine-4-carbonitrile] the figure was 6.4 nM; with `N#C[C@@H]1CCCN1C(=O)CNC12CC3CC1CC(CN1C(=O)c4ccccc4C1=O)(C3)C2` (stereo partly drawn) [Example 10, (2S)-1-{N-[2-[(1,3-dioxo-1,3-dihydro-2H-isoindol-2-yl)methyl]hexahydro-2,5-methanopentalen-3a(1H)-yl]glycyl}pyrrolidine-2-carbonitrile], about 30 nM; with `N#C[C@@H]1CCCN1C(=O)CNC12CC3CC(CC1C3)C2` [Example 20, (2S)-1-[(tricyclo[3.3.1.0^3,7]non-3-ylamino)acetyl]pyrrolidine-2-carbonitrile], 30 nM. Turning to `N#C[C@@H]1CCCN1C(=O)CNC12CC3CC1CC(Cn1cncn1)(C3)C2` (stereo partly drawn) [Example 1, (2S)-1-[1H-1,2,4-triazol-1-ylmethyl(tricyclo[3.3.1.0^3,7]non-3-ylamino)acetyl]pyrrolidine-2-carbonitrile], the IC50 came out at 8.1 nM. As to `N#C[C@@H]1C[C@H](F)CN1C(=O)CNC12CC3CC1CC(c1ccc(N4CCCS4(=O)=O)cc1)(C3)C2` (stereo partly drawn) [Example 12, (2S,4S)-1-{N-[2-[4-(1,1-dioxidoisothiazolidin-2-yl)phenyl]hexahydro-2,5-methanopentalen-3a(1H)-yl]glycyl}-4-fluoropyrrolidine-2-carbonitrile], the IC50 amounted to 5 nM. For the compound `CN1CCN(c2ccc(C34CC5CC(C3)C(NCC(=O)N3CCC[C@H]3C#N)(C5)C4)cc2)C1=O` (stereo partly shown) [Example 32], the IC50 was 53.6 nM. For `N#C[C@@H]1CSCN1C(=O)CNC12CC3CC1CC(c1ccc(N4CCCC4=O)cc1)(C3)C2` (stereo partly drawn) [Example 17, (4R)-3-{N-[2-[4-(2-oxopyrrolidin-1-yl)phenyl]hexahydro-2,5-methanopentalen-3a(1H)-yl]glycyl}-1,3-thiazolidine-4-carbonitrile] the value was 8.7 nM; for `N#C[C@@H]1C[C@H](F)CN1C(=O)CNC12CC3CC1CC(Cn1cncn1)(C3)C2` (stereo partly drawn) [Example 2, (2S,4S)-4-fluoro-1-{N-[2-(1H-1,2,4-triazol-1-ylmethyl)hexahydro-2,5-methanopentalen-3a(1H)-yl]glycyl}pyrrolidine-2-carbonitrile], 2.8 nM; for `N#C[C@@H]1CCCN1C(=O)CNC12CC3CC1CC(c1ccc(N4CCNC4=O)cc1)(C3)C2` (stereo partly drawn) [Example 19, (2S)-1-{N-[2-[4-(2-oxoimidazolidin-1-yl)phenyl]hexahydro-2,5-methanopentalen-3a(1H)-yl]glycyl}pyrrolidine-2-carbonitrile], 15.4 nM. With `N#C[C@@H]1CCCN1C(=O)CNC12CC3CC1CC(Cc1ncon1)(C3)C2` (stereo partly shown) [Example 31] the figure was 21 nM; with `CCOC12CC3CC(C1)C(NCC(=O)N1CCC[C@H]1C#N)(C3)C2` (stereo partly drawn) [Example 23, (2S)-1-{[(1-ethoxytricyclo[3.3.1.0^3,7]non-3-yl)amino]acetyl}pyrrolidine-2-carbonitrile], 11.9 nM. `N#C[C@@H]1CCCN1C(=O)CNC12CC3CC1CC(CN1CCSCC1)(C3)C2` (stereo partly drawn) [Example 7, (2S)-1-{N-[2-(thiomorpholin-4-ylmethyl)hexahydro-2,5-methanopentalen-3a(1H)-yl]glycyl}pyrrolidine-2-carbonitrile]: the IC50 stood at 30 nM. For the compound `N#C[C@@H]1CCCN1C(=O)CNC12CC3CC1CC(c1ccc(N4CCCS4(=O)=O)cc1)(C3)C2` (stereo partly drawn) [Example 11, (2S)-1-{N-[2-[4-(1,1-dioxidoisothiazolidin-2-yl)phenyl]hexahydro-2,5-methanopentalen-3a(1H)-yl]glycyl}pyrrolidine-2-carbonitrile], the IC50 stood at 20 nM. As for `N#C[C@@H]1CCCN1C(=O)CNC12CC3CC1CC(c1ccccc1)(C3)C2` (stereo partly drawn) [Example 28, (2S)-1-[N-(2-phenylhexahydro-2,5-methanopentalen-3a(1H)-yl)glycyl]pyrrolidine-2-carbonitrile], the IC50 is 30 nM. As for `N#C[C@@H]1CCCN1C(=O)CNC12CC3CC1CC(c1ccc(-n4cccc4)cc1)(C3)C2` (stereo partly drawn) [Example 18, (2S)-1-{N-[2-[4-(1H-pyrrol-1-yl)phenyl]hexahydro-2,5-methanopentalen-3a (1H)-yl]glycyl}pyrrolidine-2-carbonitrile], the IC50 was about 30 nM. As for `N#C[C@@H]1CSCN1C(=O)CNC12CC3CC1CC(Cn1cncn1)(C3)C2` (stereo partly drawn) [Example 4, (4R)-3-{N-[2-(1H-1,2,4-triazol-1-ylmethyl)hexahydro-2,5-methanopentalen-3a(1H)-yl]glycyl}-1,3-thiazolidine-4-carbonitrile], the concentration for half-maximal inhibition (IC50) is 7 nM.

Turning to `N#C[C@@H]1C[C@@H](F)CN1C(=O)CNC12CC3CC1CC(Cn1cncn1)(C3)C2` (stereo partly drawn) [Example 3, (2S,4R)-4-fluoro-1-{N-[2-(1H-1,2,4-triazol-1-ylmethyl)hexahydro-2,5-methanopentalen-3a(1H)-yl]glycyl}pyrrolidine-2-carbonitrile], the IC50 was over 300 nM. With `N#C[C@@H]1CCCN1C(=O)CNC12CC3CC1CC(F)(C3)C2` (stereo partly drawn) [Example 25, (2S)-1-[N-(2-fluorohexahydro-2,5-methanopentalen-3a(1H)-yl)glycyl]pyrrolidine-2-carbonitrile] the figure was 100 nM; with `N#C[C@@H]1CCCN1C(=O)CNC12CC3CC1CC(Cn1cnnn1)(C3)C2` (stereo partly drawn) [Example 5, (2S)-1-{N-[2-(1H-tetrazol-1-ylmethyl)hexahydro-2,5-methanopentalen-3a(1H)-yl]glycyl}pyrrolidine-2-carbonitrile], 11 nM. With `CN1CCN(CC23CC4CC(C2)C(NCC(=O)N2CCC[C@H]2C#N)(C4)C3)CC1` (stereo partly drawn) [Example 6, (2S)-1-{N-[2-[(4-methylpiperazin-1-yl)methyl]hexahydro-2,5-methanopentalen-3a (1H)-yl]glycyl}pyrrolidine-2-carbonitrile], the IC50 amounted to 100 nM. For `N#C[C@@H]1CCCN1C(=O)CNC12CC3CC1CC(c1ccc(N)cc1)(C3)C2` (stereo partly drawn) [Example 30, (2S)-1-{N-[2-(4-aminophenyl)hexahydro-2,5-methanopentalen-3a(1H)-yl]glycyl}pyrrolidine-2-carbonitrile] the value was about 32.4 nM; for `N#C[C@@H]1CCCN1C(=O)CNC12CC3CC1CC(N1CCCS1(=O)=O)(C3)C2` (stereo partly drawn) [Example 27, (2S)-1-{N-[2-(1,1-dioxidoisothiazolidin-2-yl)hexahydro-2,5-methanopentalen-3a(1H)-yl]glycyl}pyrrolidine-2-carbonitrile], 30 nM.

Regarding `N#C[C@@H]1CCCN1C(=O)CNC12CC3CC1CC(CN1CCCS1(=O)=O)(C3)C2` (stereo partly drawn) [Example 8, (2S)-1-{N-[2-[(1,1-dioxidoisothiazolidin-2-yl)methyl]hexahydro-2,5-methanopentalen-3a(1H)-yl]glycyl}pyrrolidine-2-carbonitrile], the IC50 was 22 nM. For `COC12CC3CC(C1)C(NCC(=O)N1CCC[C@H]1C#N)(C3)C2` (stereo partly drawn) [Example 22, (2S)-1-{[(1-methoxytricyclo[3.3.1.0^3,7]non-3-yl)amino]acetyl}pyrrolidine-2-carbonitrile] the value was 30 nM. With `N#C[C@@H]1CCCN1C(=O)CNC12CC3CC1CC(c1ccc(N4CCCC4=O)cc1)(C3)C2` (stereo partly drawn) [Example 15, (2S)-1-{N-[2-[4-(2-oxopyrrolidin-1-yl)phenyl]hexahydro-2,5-methanopentalen-3a(1H)-yl]glycyl}pyrrolidine-2-carbonitrile] the figure was 4 nM; with `N#C[C@@H]1C[C@H](F)CN1C(=O)CNC12CC3CC1CC(c1ccc(N4CCCC4=O)cc1)(C3)C2` (stereo partly drawn) [Example 16, (2S,4S)-4-fluoro-1-{N-[2-[4-(2-oxopyrrolidin-1-1)phenyl]hexahydro-2,5-methanopentalen-3a(1H)-yl]glycyl}pyrrolidine-2-carbonitrile], 0.95 nM; with `N#C[C@@H]1CCCN1C(=O)CNC12CC3CC1CC(N1CCCC1=O)(C3)C2` (stereo partly drawn) [Example 26, (2S)-1-{N-[2-(2-oxopyrrolidin-1-yl)hexahydro-2,5-methanopentalen-3a(1H)-yl]glycyl}pyrrolidine-2-carbonitrile], 21.8 nM. With `N#C[C@@H]1CCCN1C(=O)CNC12CC3CC1CC(c1ccc([N+](=O)[O-])cc1)(C3)C2` (stereo partly drawn) [Example 29, (2S)-1-{N-[2-(4-nitrophenyl)hexahydro-2,5-methanopentalen-3a(1H)-yl]glycyl}pyrrolidine-2-carbonitrile] the figure was about 30 nM.
